Measurements from ChEMBL document CHEMBL1201862, “PubChem BioAssay data set” (2004).
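Step 1: Grow cells in 96-well plates. Step 2: Expose to compound for 48 hours at 5 concentrations. Step 3: Interpolate endpoints linearly; if unreached, use highest concentration. GI50: concentration for 50% inhibition of growth.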 Active and inactive are the calls of the source. No stated cut-off is given here; in the data, active = GI50 up to about 1.1 µM and inactive = higher.

Tests used:
Experiment in all cases: growth of human tumour cells (NCI), 48 h
SK-OV-3 = system: SK-OV-3
HOP-92 = system: HOP-92
NCI-H226 = system: NCI-H226
786-0 = system: 786-0
DU-145 = system: DU-145
NCI-H460 = system: NCI-H460
NCI-H23 = system: NCI-H23
SF-268 = system: SF-268
RXF 393 = system: RXF 393
HCT-15 = system: HCT-15
SW-620 = system: SW-620
MDA-MB-231 = system: MDA-MB-231
UACC-257 = system: UACC-257
HCC 2998 = system: HCC 2998
MOLT-4 = system: MOLT-4
MCF7 = system: MCF7
OVCAR-3 = system: OVCAR-3
EKVX = system: EKVX
M14 = system: M14

Compound | GI50 (SK-OV-3) | GI50 (HOP-92) | GI50 (NCI-H226) | GI50 (786-0) | GI50 (DU-145) | GI50 (NCI-H460) | GI50 (NCI-H23) | GI50 (SF-268) | GI50 (RXF 393) | GI50 (HCT-15) [µM] | GI50 (SW-620) | GI50 (MDA-MB-231) | GI50 (UACC-257) | GI50 (HCC 2998) | GI50 (MOLT-4) | GI50 (MCF7) | GI50 (OVCAR-3) | GI50 (EKVX) | GI50 (M14)
O=C(O)CSc1ccccc1C(=O)O | > 100 µM (inactive) | > 100 µM (inactive) | 99.1 µM (inactive) | > 100 µM (inactive) | > 100 µM (inactive) | 20.7 µM (inactive) | > 100 µM (inactive) | > 100 µM (inactive) | > 100 µM (inactive) | > 100 | > 100 µM (inactive) | > 100 µM (inactive) | 15 µM (inactive) | 29.6 µM (inactive) | > 100 µM (inactive) | > 100 µM (inactive) | > 100 µM (inactive) | > 100 µM (inactive) | > 100 µM (inactive)
NCC(=O)Nc1ccc(Cl)cc1C(=O)c1ccc[nH]1 | > 100 µM (inactive) | 15.4 µM (inactive) | 46.3 µM (inactive) | > 83.4 µM (inactive) | > 100 µM (inactive) | 10.4 µM (inactive) | 14.3 µM (inactive) | 49 µM (inactive) | > 82.2 µM (inactive) | 38.5 | 13.6 µM (inactive) | > 51.1 µM (inactive) | > 100 µM (inactive) | 31.8 µM (inactive) | 35.8 µM (inactive) | 6.31 µM (inactive) | 40.9 µM (inactive) | > 100 µM (inactive) | 99.3 µM (inactive)
Cn1c(=O)c2c(nc(-n3nc(-c4ccc(Cl)cc4)cc3N)n2C)n(C)c1=O | 18.1 µM (inactive) | > 100 µM (inactive) | 55.2 µM (inactive) | 6.9 µM (inactive) | > 100 µM (inactive) | > 100 µM (inactive) | > 100 µM (inactive) | 9.91 µM (inactive) | > 100 µM (inactive) | > 100 |  | > 100 µM (inactive) | > 100 µM (inactive) | > 100 µM (inactive) | 11.6 µM (inactive) | 68.4 µM (inactive) | > 100 µM (inactive) | > 100 µM (inactive) | > 100 µM (inactive)
COc1ccc(CN2C(=O)CCC/C=C\[C@H]2CI)cc1 | 16 µM (inactive) | 12.8 µM (inactive) | 12.9 µM (inactive) | 14 µM (inactive) | 13.3 µM (inactive) | 13.1 µM (inactive) | 15.1 µM (inactive) | 13.4 µM (inactive) | 3.32 µM (inactive) | 12.4 | 11.6 µM (inactive) | 11 µM (inactive) | 10.1 µM (inactive) | 11.6 µM (inactive) | 10.1 µM (inactive) | 10.7 µM (inactive) | 11.6 µM (inactive) | 10.7 µM (inactive) | 10.7 µM (inactive)
CCOc1ccc(/C=C2/C(=O)N/C(=N\C(C)=O)N2C)cc1 | > 100 µM (inactive) | > 100 µM (inactive) | > 100 µM (inactive) | > 100 µM (inactive) | > 100 µM (inactive) | 67.5 µM (inactive) | > 100 µM (inactive) | > 100 µM (inactive) | > 100 µM (inactive) | 64.7 | > 100 µM (inactive) | > 100 µM (inactive) | > 100 µM (inactive) | > 100 µM (inactive) | 39.6 µM (inactive) | 62.8 µM (inactive) | > 100 µM (inactive) | 54.2 µM (inactive) | > 100 µM (inactive)
C(=N/Nc1ccc(-c2nc3ccccc3[nH]2)cc1)/c1c(-c2ccccc2)[nH]c2ccccc12 | 0.32 µM (active) | > 100 µM (inactive) | 0.408 µM (active) | 0.465 µM (active) | 0.733 µM (active) | 0.315 µM (active) | 0.973 µM (active) | 0.647 µM (active) | 1.6 µM (inactive) | 0.409 | 0.317 µM (active) | 0.475 µM (active) | 0.678 µM (active) | 0.168 µM (active) | 0.658 µM (active) | 0.361 µM (active) | 0.219 µM (active) | 3.16 µM (inactive) | 0.215 µM (active)
O=C(Cc1ccccc1)NCCCN(CCCCN(CCCNC(=O)Cc1ccccc1)C(=O)OCc1ccccc1)C(=O)OCc1ccccc1 | > 100 µM (inactive) | > 25.2 µM (inactive) | > 100 µM (inactive) | > 100 µM (inactive) | > 100 µM (inactive) | > 19.9 µM (inactive) | > 100 µM (inactive) | > 100 µM (inactive) | > 31.4 µM (inactive) | > 43.4 | > 100 µM (inactive) | > 100 µM (inactive) | > 100 µM (inactive) | > 38.1 µM (inactive) | 4.49 µM (inactive) | > 81.1 µM (inactive) | > 100 µM (inactive) | > 49.8 µM (inactive) | > 100 µM (inactive)
